Source: patent US20240417387A1, “SULFONYLPIPERAZINYL COMPOUNDS FOR TREATMENT OF BACTERIAL INFECTIONS” (Hoffmann-La Roche Inc., priority 2021, published 2024)
In brackets after ≈: the same amount, converted by molar mass.

Legend:
[1] = test system: Klebsiella pneumonia ATCC 43816; experiment: Minimal Inhibitory Concentration (MIC) broth dilution assay, K. pneumonia ATCC 43816; format: cell-based; details: Klebsiella pneumoniae, ATCC43816, 20 hours at 35° C., CAMHB, read-out: MIC K. p ATCC 43816
Procedure, shortened: (§1)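 Broth microdilution with twofold compound series in cation-adjusted Mueller Hinton broth, inoculum 5×10^5 CFU/mL, applied to each strain. Plates incubated 20 h at 35 °C in ambient air. MIC […] recorded as the lowest concentration with no visible growth, read by eye.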

[2] = Human microsome stability assay; format: in vitro ADME; details: human liver microsomes 0.5 mg/mL, 37° C., pH 7.4, NADPH regenerating system
Procedure, shortened: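 Compound […] with 0.5 mg/mL human liver microsomal protein in 100 mM potassium phosphate pH 7.4, 10 min preincubation at 37 °C, started with NADPH regenerating system. Sampled 0–30 min, remaining compound by LC-MS/MS; clearance binned low <7, medium 7–16.2, high >16.2 mL/min/kg.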

[3] = target: Escherichia coli UDP-2,3-diacylglucosamine hydrolase (LpxH) (Escherichia coli (strain K12), UniProt P43341); experiment: Enzymatic IC50 assay of Escherichia coli LpxH (UMP/CMP-Glo luminescence); format: biochemical; details: Enzymatic IC50 against Escherichia coli LpxH; read-out: IC50 (converted)
Procedure, shortened: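 LpxH (2 nM) preincubated 10 min at room temperature with compound (100 μM to 1.7 nM) in Tris-HCl pH7.5 buffer with 2.5 mM MnCl2, then reacted with 5 μM UDP-DAG for 20 min. Reaction heat-stopped at 95° C.; released UMP converted to ATP and read by luciferase luminescence (UMP/CMP-Glo).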

[4] = test system: Escherichia coli ATCC 25922; experiment: Minimal Inhibitory Concentration (MIC) broth dilution assay, E. coli ATCC 25922; format: cell-based; details: Escherichia coli, ATCC25922, 20 h, read-out: MIC E. coli ATCC 25922
Procedure, shortened: as §1

[5] = test system: Escherichia coli BW 25113; experiment: Minimal Inhibitory Concentration (MIC) broth dilution assay, E. coli BW 25113; format: cell-based; details: Escherichia coli, BW25113, 20 hours at 35° C., CAMHB, read-out: MIC E. coli K-12 BW 25113
Procedure, shortened: as §1

Chain of Escherichia coli UDP-2,3-diacylglucosamine hydrolase (LpxH) (P43341 whole entry): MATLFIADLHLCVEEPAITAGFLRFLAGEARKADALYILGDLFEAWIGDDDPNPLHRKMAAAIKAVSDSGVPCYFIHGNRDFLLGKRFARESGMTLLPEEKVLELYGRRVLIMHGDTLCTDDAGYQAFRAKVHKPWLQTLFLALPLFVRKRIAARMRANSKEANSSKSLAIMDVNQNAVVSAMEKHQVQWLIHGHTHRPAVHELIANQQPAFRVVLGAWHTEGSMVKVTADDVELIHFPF

With `NCCCNC(=O)C12CCC(C(F)(F)c3cc(Cl)nc(N4CCN(S(=O)(=O)c5ccc(N6C[C@H](N)CC6=O)cc5)CC4)c3)(CC1)C2` [Example 034, N-(3-aminopropyl)-4-[[2-chloro-6-[4-[4-[(4R)-4-amino-2-oxo-pyrrolidin-1-yl]phenyl]sulfonylpiperazin-1-yl]-4-pyridyl]-difluoro-methyl]norbornane-1-carboxamide] the MIC [1] was 1.1 µg/mL (≈ 1.62 µM), the “Clearance of Human microsome” value [2] was 6.15 mL/min/kg and the IC50 [3] was 29.4 nM. For the same compound, the MIC [4] was 1.1 µg/mL (≈ 1.62 µM) and the MIC [5] was 1.7 µg/mL (≈ 2.5 µM).

With `NCC(O)CNC(=O)[C@H]1CC[C@H](C(F)(F)c2cc(Cl)nc(N3CCN(S(=O)(=O)c4ccc(N5C[C@H](N)CC5=O)cc4)CC3)c2)CC1` (stereo partly drawn) [Example 036, Trans-N-(3-amino-2-hydroxy-propyl)-4-[[2-chloro-6-[4-[4-[(4R)-4-amino-2-oxo-pyrrolidin-1-yl]phenyl]sulfonylpiperazin-1-yl]-4-pyridyl]-difluoro-methyl]cyclohexanecarboxamide] the MIC [1] was 1.1 µg/mL (≈ 1.61 µM), the “Clearance of Human microsome” value [2] was 6.15 mL/min/kg and the IC50 [3] was 5.85 nM. For the same compound, the MIC [4] was 1.1 µg/mL (≈ 1.61 µM) and the MIC [5] was 1.1 µg/mL (≈ 1.61 µM).

In the case of `C[N+](C)(C)CCCNC(=O)c1ccc(C(F)(F)c2cc(Cl)nc(N3CCN(S(=O)(=O)c4ccc(N5C[C@H](N)CC5=O)cc4)CC3)c2)cc1` [Example 037], the MIC [1] is reported as 1.5 µg/mL, the “Clearance of Human microsome” value [2] is reported as 6.66 mL/min/kg and the IC50 [3] is reported as under 2.84 nM. It also gave an MIC [4] of 1.5 µg/mL and an MIC [5] of 0.73 µg/mL.

For `C[N+]1(CCCNC(=O)c2ccc(C(F)(F)c3cc(Cl)nc(N4CCN(S(=O)(=O)c5ccc(N6C[C@H](N)CC6=O)cc5)CC4)c3)cc2)CCCC1` [Example 038, 4-[[2-Chloro-6-[4-[4-[(4R)-4-amino-2-oxo-pyrrolidin-1-yl]phenyl]sulfonylpiperazin-1-yl]-4-pyridyl]-difluoro-methyl]-N-[3-(1-methylpyrrolidin-1-ium-1-yl)propyl]benzamide], the MIC [1] was 1.5 µg/mL, the “Clearance of Human microsome” value [2] was 6.80 mL/min/kg and the IC50 [3] was 4.1 nM. The MIC [4] was 1.5 µg/mL and the MIC [5] was 1.5 µg/mL.

For `N[C@@H]1CC(=O)N(c2ccc(S(=O)(=O)N3CCN(c4cc(C(F)(F)c5ccc(C(=O)NCCCNCCO)nc5)cc(Cl)n4)CC3)cc2)C1` [Example 039, 5-[[2-Chloro-6-[4-[4-[(4R)-4-amino-2-oxo-pyrrolidin-1-yl]phenyl]sulfonylpiperazin-1-yl]-4-pyridyl]-difluoro-methyl]-N-[3-(2-hydroxyethylamino)propyl]pyridine-2-carboxamide], the MIC [1] was 1.6 µg/mL (≈ 2.26 µM), the “Clearance of Human microsome” value [2] was 6.15 mL/min/kg and the IC50 [3] was 4.24 nM. The MIC [4] was 1.6 µg/mL (≈ 2.26 µM) and the MIC [5] was 0.82 µg/mL (≈ 1.16 µM).

For `NCCOCCNC(=O)[C@H]1CC[C@H](C(F)(F)c2cc(Cl)nc(N3CCN(S(=O)(=O)c4ccc(N5C[C@H](N)CC5=O)cc4)CC3)c2)CC1` [Example 042, Trans-N-[2-(2-aminoethoxy)ethyl]-4-[[2-chloro-6-[4-[4-[(4R)-4-amino-2-oxo-pyrrolidin-1-yl]phenyl]sulfonylpiperazin-1-yl]-4-pyridyl]-difluoro-methyl]cyclohexanecarboxamide], the MIC [1] was 2.3 µg/mL (≈ 3.29 µM), the “Clearance of Human microsome” value [2] was 11.12 mL/min/kg and the IC50 [3] was 11.5 nM. For the same compound, the MIC [4] was 2.3 µg/mL (≈ 3.29 µM) and the MIC [5] was 2.3 µg/mL (≈ 3.29 µM).

With `NCCN(CCN)C(=O)[C@H]1CC[C@H](C(F)(F)c2cc(Cl)nc(N3CCN(S(=O)(=O)c4ccc(N5C[C@H](N)CC5=O)cc4)CC3)c2)CC1` [Example 043] the MIC [1] was 1.1 µg/mL (≈ 1.58 µM), the “Clearance of Human microsome” value [2] was 9.94 mL/min/kg and the IC50 [3] was 35.9 nM. The MIC [4] was 0.57 µg/mL (≈ 0.817 µM) and the MIC [5] was 1.1 µg/mL (≈ 1.58 µM).

In the case of `NCCCN(CCCN)C(=O)[C@H]1CC[C@H](C(F)(F)c2cc(Cl)nc(N3CCN(S(=O)(=O)c4ccc(N5C[C@H](N)CC5=O)cc4)CC3)c2)CC1` [Example 044, Trans-N,N-bis(3-aminopropyl)-4-[[2-chloro-6-[4-[4-[(4R)-4-amino-2-oxo-pyrrolidin-1-yl]phenyl]sulfonylpiperazin-1-yl]-4-pyridyl]-difluoro-methyl]cyclohexanecarboxamide], the MIC [1] is reported as 1.2 µg/mL (≈ 1.65 µM), the “Clearance of Human microsome” value [2] is reported as 7.30 mL/min/kg and the IC50 [3] is reported as 48.3 nM. It also gave an MIC [4] of 0.62 µg/mL (≈ 0.855 µM) and an MIC [5] of 1.2 µg/mL (≈ 1.65 µM).

With `NCCCN(CCCN)C(=O)C12CCC(C(F)(F)c3cc(Cl)nc(N4CCN(S(=O)(=O)c5ccc(N6C[C@H](N)CC6=O)cc5)CC4)c3)(CC1)CC2` [Example 045, N,N-bis(3-aminopropyl)-4-[[2-chloro-6-[4-[4-[(4R)-4-amino-2-oxo-pyrrolidin-1-yl]phenyl]sulfonylpiperazin-1-yl]-4-pyridyl]-difluoro-methyl]bicyclo[2.2.2]octane-1-carboxamide] the MIC [1] was 0.62 µg/mL (≈ 0.825 µM), the “Clearance of Human microsome” value [2] was 8.79 mL/min/kg and the IC50 [3] was 18.6 nM. The MIC [4] was 0.62 µg/mL (≈ 0.825 µM) and the MIC [5] was 1.2 µg/mL (≈ 1.6 µM).

With `NCCN(CCN)CCCNC(=O)[C@H]1CC[C@H](C(F)(F)c2cc(Cl)nc(N3CCN(S(=O)(=O)c4ccc(N5C[C@H](N)CC5=O)cc4)CC3)c2)CC1` [Example 047] the MIC [1] was 0.3 µg/mL (≈ 0.398 µM), the “Clearance of Human microsome” value [2] was 6.15 mL/min/kg and the IC50 [3] was 6.63 nM. For the same compound, the MIC [4] was 0.35 µg/mL (≈ 0.464 µM) and the MIC [5] was 0.3 µg/mL (≈ 0.398 µM).

For `N[C@@H]1CC(=O)N(c2ccc(S(=O)(=O)N3CCN(c4cc(C(F)(F)[C@H]5CC[C@H](C(=O)N6C[C@H](N)C[C@H](N)C6)CC5)cc(Cl)n4)CC3)cc2)C1` [Example 048, Trans-(4R)-4-amino-1-[4-[4-[6-chloro-4-[[4-cis-(3,5-diaminopiperidine-1-carbonyl)cyclohexyl]-difluoro-methyl]-2-pyridyl]piperazin-1-yl]sulfonylphenyl]pyrrolidin-2-one], the MIC [1] was 1.2 µg/mL (≈ 1.69 µM), the “Clearance of Human microsome” value [2] was 12.06 mL/min/kg and the IC50 [3] was 18.3 nM. The MIC [4] was 1.2 µg/mL (≈ 1.69 µM) and the MIC [5] was 1.2 µg/mL (≈ 1.69 µM).

In the case of `N[C@@H]1C[C@H](N)CN(CCCNC(=O)[C@H]2CC[C@H](C(F)(F)c3cc(Cl)nc(N4CCN(S(=O)(=O)c5ccc(N6C[C@H](N)CC6=O)cc5)CC4)c3)CC2)C1` [Example 049, Trans-4-[[2-chloro-6-[4-[4-[(4R)-4-amino-2-oxo-pyrrolidin-1-yl]phenyl]sulfonylpiperazin-1-yl]-4-pyridyl]-difluoro-methyl]-N-[3-[cis-3,5-diamino-1-piperidyl]propyl]cyclohexanecarboxamide], the MIC [1] is reported as 1.2 µg/mL (≈ 1.57 µM), the “Clearance of Human microsome” value [2] is reported as 7.38 mL/min/kg and the IC50 [3] is reported as 9.13 nM. It also gave an MIC [4] of 1.2 µg/mL (≈ 1.57 µM) and an MIC [5] of 0.6 µg/mL (≈ 0.783 µM).

With `N[C@@H]1CC(=O)N(c2ccc(S(=O)(=O)N3CCN(c4cc(C(F)(F)[C@H]5CC[C@H](C(=O)NNC(=O)C6CCNCC6)CC5)cc(Cl)n4)CC3)cc2)C1` [Example 051, Trans-N′-[4-[[2-chloro-6-[4-[4-[(4R)-4-amino-2-oxo-pyrrolidin-1-yl]phenyl]sulfonylpiperazin-1-yl]-4-pyridyl]-difluoro-methyl]cyclohexanecarbonyl]piperidine-4-carbohydrazide] the MIC [1] was 4.6 µg/mL (≈ 6.24 µM), the “Clearance of Human microsome” value [2] was 8.70 mL/min/kg and the IC50 [3] was 12.2 nM. The MIC [4] was 4.6 µg/mL (≈ 6.24 µM) and the MIC [5] was 2.3 µg/mL (≈ 3.12 µM).

In the case of `NC(CO)CNC(=O)[C@H]1CC[C@H](C(F)(F)c2cc(Cl)nc(N3CCN(S(=O)(=O)c4ccc(N5C[C@H](N)CC5=O)cc4)CC3)c2)CC1` (stereo partly drawn) [Example 052, Trans-N-(2-amino-3-hydroxy-propyl)-4-[[2-chloro-6-[4-[4-[(4R)-4-amino-2-oxo-pyrrolidin-1-yl]phenyl]sulfonylpiperazin-1-yl]-4-pyridyl]-difluoro-methyl]cyclohexanecarboxamide], the MIC [1] is reported as 0.56 µg/mL (≈ 0.818 µM), the “Clearance of Human microsome” value [2] is reported as 7.41 mL/min/kg and the IC50 [3] is reported as under 2.92 nM. The MIC [4] was 0.56 µg/mL (≈ 0.818 µM) and the MIC [5] was 0.56 µg/mL (≈ 0.818 µM).
